In ChEMBL document CHEMBL1142268, “Histone deacetylase inhibitors: from bench to clinic” (J Med Chem, 2008) one finds IC50 data, which are given here for 69 compounds.

A value given as a limit tells only on which side of the number the result lay.

The first experiment deals with MKN-45. The experiment can be described thus: Antiproliferative activity against human MKN45 cells. The experiment is classed as functional, cell-based.
Conditions: not given
As to `COc1ccccc1NC(=O)Cn1ccc(-c2ccc(C(=O)NO)s2)n1`, the IC50 is 230 nM.

`O=C(NO)c1ccc(-c2ccn(CCNCc3ccccc3)n2)s1` came in with an IC50 of 1800 nM.

Take `COc1ccc(CNCCn2ccc(-c3ccc(C(=O)NO)s3)n2)cc1`: the midpoint of inhibition, the IC50, lay at 550 nM.

`Cn1nc(C(F)(F)F)cc1-c1ccc(C(=O)NO)s1` showed a 50% inhibitory concentration (IC50) of 31500 nM.

`O=C(NO)c1ccc(-c2ccn(CCOCc3ccccc3)n2)s1` registered an IC50 of 750 nM.

Compound `O=C(Cn1ccc(-c2ccc(C(=O)NO)s2)n1)Nc1cccc2cccnc12` came in with an IC50 of 200 nM.

For `O=C(NO)c1ccc(-c2ccn(CCNCc3ccc(-n4ccnc4)cc3)n2)s1`, the IC50 stood at 560 nM.

`O=C(NO)c1ccc(-c2ccn(CCc3ccccc3)n2)s1` registered a half-inhibitory concentration (IC50) of 2910 nM.

`O=C(Cn1ccc(-c2ccc(C(=O)NO)s2)n1)Nc1ccccc1` displayed an IC50 of 840 nM.

The subject of another experiment is HCT-116. The experiment can be described thus: Inhibition of human HCT116 cells. The experiment is classed as functional, cell-based.
Conditions: not given
Turning to `Nc1ccccc1NC(=O)/C=C/c1ccc(NCc2ccccc2)nc1`, the 50% inhibitory concentration (IC50) was found to be 1000 nM.

`Nc1ccccc1NC(=O)c1ccc(CSc2nc3ccccc3[nH]2)cc1` gave a concentration for half-maximal inhibition (IC50) of 320 nM.

The compound `COc1ccc(CCNc2ccc(C(=O)Nc3ccccc3N)cn2)cc1` registered a 50% inhibitory concentration (IC50) of 800 nM.

Consider `Nc1ccccc1NC(=O)c1ccc(/C=C/C(=O)NCCc2c[nH]c3ccccc23)cc1`, for which the half-inhibitory concentration (IC50) worked out at 300 nM.

On to `COc1cc(CNc2ccc(/C=C/C(=O)Nc3ccccc3N)cn2)cc(OC)c1OC`, for which the half-inhibitory concentration (IC50) was 2000 nM.

As to `COc1ccc(NCc2ccc(/C=C/C(=O)Nc3ccccc3N)cc2)cc1`, half-maximal inhibition (IC50) required 12000 nM.

With `COc1cc(NC/C=C/c2ccc(C(=O)Nc3ccccc3N)cc2)cc(OC)c1OC`, it took 100 nM to reach half-maximal inhibition (IC50).

`COc1ccc(CNc2ccc(C(=O)Nc3ccccc3N)cc2)cc1OC` returned an IC50 of 600 nM.

`Nc1ccccc1NC(=O)CCCCCCNC(=O)c1cccc(-c2ccccc2)c1` returned an IC50 of 12000 nM.

The compound `COc1ccc(CNc2ccc(/C=C/C(=O)Nc3ccccc3N)cc2)cc1` registered a half-inhibitory concentration (IC50) of 37000 nM.

`COc1ccc(CNc2ccc(C(=O)Nc3ccccc3N)cn2)cc1` returned a 50% inhibitory concentration (IC50) of 500 nM.

Consider `Nc1ccccc1NC(=O)CCCCCCNC(=O)c1ccc(-c2ccccc2)cc1`, for which the IC50 worked out at 7000 nM.

The compound `Nc1ccccc1NC(=O)c1ccc(/C=C/CNc2nccc(-c3cccnc3)n2)cc1` yielded an IC50 of 200 nM.

`Nc1ccccc1NC(=O)c1ccc(/C=C/C(=O)NCc2cccnc2)cc1` registered an IC50 of 70 nM.

The compound `COc1ccc(CNc2ccc(/C=C/C(=O)Nc3ccccc3N)cn2)cc1` had an IC50 of 3000 nM.

Take `COc1cc(NCc2ccc(/C=C/C(=O)Nc3ccccc3N)cn2)cc(OC)c1OC`: the IC50 was found to be 3000 nM.

In another experiment the target is Histone deacetylase. As to the kind of experiment: Inhibition of HDAC from human K562 cells.
Conditions: not given
Type of experiment: cell-based.
For the compound `COC(=O)C(=O)CCCCCCCOc1ccc(-c2ccccc2)cc1`, the half-inhibitory concentration (IC50) is 109 nM.

With `C[C@@H]1C(=O)N[C@H](C)C(=O)N[C@H](C)C(=O)N[C@H](Cc2ccccc2)C(=O)N[C@@H]1C/C=C\CCC(N)=O` [AZUMAMIDE D], the IC50 came to 1300 nM.

In the case of `O=C(CCCCCCc1cnc(-c2ccccc2)o1)NO`, the IC50 is listed as 13 nM.

As to `CC(C)[C@H]1NC(=O)[C@@H](C)[C@@H](C/C=C\CCC(N)=O)NC(=O)[C@@H](Cc2ccccc2)NC(=O)[C@@H](C)NC1=O` [AZUMAMIDE A], the IC50 amounted to 45 nM.

Regarding `NC(=O)C(=O)CCCCCCOc1ccc(-c2ccccc2)cc1`, the IC50 was above 50000 nM.

Regarding `COC(=O)C(=O)CCCCCOc1ccc(-c2ccccc2)cc1`, the IC50 was found to be 82 nM.

As to `C1=C\CCCCCC[n+]2cccc(c2)CCCCCCCCCCCC[n+]2cccc(c2)CCCCCC/1`, the IC50 was 27000 nM.

With `O=C(CCCCCCc1nc(-c2ccc(OC(F)(F)F)cc2)cs1)NO`, the half-maximal inhibitory concentration (IC50) is recorded as 74 nM.

The compound `CN(C)C(=O)C(=O)CCCCCCOc1ccc(-c2ccccc2)cc1` gave an IC50 above 5000 nM.

As for `O=C(CCCCCCc1cnc(-c2ccc(F)cc2)o1)NO`, the IC50 is 23 nM.

Turning to `COC(=O)C(=O)CCCCCCOc1ccc(-c2ccccc2)cc1`, the IC50 was 62 nM.

`O=C(O)C(=O)CCCCCCOc1ccc(-c2ccccc2)cc1` gave an IC50 of 3700 nM.

In the case of `CN(C)CCNC(=O)C(=O)CCCCCCOc1ccc(-c2ccccc2)cc1`, the half-maximal inhibitory concentration (IC50) is above 50000 nM.

Regarding `O=C(O)CNC(=O)C(=O)CCCCCCOc1ccc(-c2ccccc2)cc1`, the concentration for half-maximal inhibition (IC50) is above 50000 nM.

Compound `CCNC(=O)C(=O)CCCCCCOc1ccc(-c2ccccc2)cc1` came in with an IC50 of 4900 nM.

A further experiment has as its target Histone deacetylase. As to the kind of experiment: Inhibition of HDAC from human HeLa cells. The experiment is classed as cell-based.
Conditions: not given
As to `O=C(NO)c1ccc(-c2ccncc2)s1`, the half-inhibitory concentration (IC50) was 1260 nM.

Consider `O=C(NO)c1ccc(-c2ccccn2)s1`, for which the IC50 was determined as 243 nM.

`CSCCCCCCC(=O)Nc1ccccc1` came in with an IC50 above 100000 nM.

`O=C(NO)c1ccc(-c2cccnc2)s1` displayed an IC50 of 1130 nM.

The same experiment, now with this note: read-out: IC50.
Consider `O=C(CCCCCNC(=O)Nc1cccc(-c2nc3ccc(F)cc3o2)c1)NO`, for which the 50% inhibitory concentration (IC50) is listed as 9 nM.

On to `COc1ccc2oc(-c3cccc(NC(=O)NCCCCCC(=O)NO)c3)nc2c1`, for which the IC50 is given as 12 nM.

On to `COc1ccc(-c2nc3cc(-c4ccccc4)ccc3o2)cc1NC(=O)NCCCCCC(=O)NO`, for which the half-maximal inhibitory concentration (IC50) was determined as 400 nM.

For `O=C(/C=C/c1cccc(S(=O)(=O)Nc2ccc(-c3ccccc3)cc2)c1)NO`, the IC50 stood at 54 nM.

For `O=C(/C=C/c1cccc(S(=O)(=O)NCc2ccccc2)c1)NO`, the half-inhibitory concentration (IC50) stood at 34 nM.

`O=C(CCCCCNC(=O)Nc1cccc(-c2nc3cc(C(F)(F)F)ccc3o2)c1)NO`: the IC50 is on record as 19 nM.

For `COc1ccc(-c2nc3ccccc3o2)cc1NC(=O)NCCCCCC(=O)NO`, the IC50 was 12 nM.

With `COc1ccc(NS(=O)(=O)c2cccc(/C=C/C(=O)NO)c2)cc1OC`, the IC50 came out at 23 nM.

On to `Cc1ccc(NS(=O)(=O)c2cccc(/C=C/C(=O)NO)c2)cc1`, for which the IC50 is 18 nM.

As for `O=C(CCCCCNC(=O)Nc1cccc(-c2nc3ccccc3o2)c1)NO`, the 50% inhibitory concentration (IC50) is reported as 8 nM.

With `O=C(/C=C/c1ccc(NS(=O)(=O)c2ccc(-c3ccccc3)cc2)cc1)NO`, the half-maximal inhibitory concentration (IC50) was 30 nM.

For the compound `COc1ccc(-c2nc3ccc(F)cc3o2)cc1NC(=O)NCCCCCC(=O)NO`, the IC50 was found to be 18 nM.

With `O=C(/C=C/c1cccc(NS(=O)(=O)c2ccccc2)c1)NO`, the IC50 was 188 nM.

Regarding `O=C(CCCCS)Nc1ccccc1`, the IC50 turned out to be 6200 nM.

In the case of `O=C(/C=C/c1cccc(NS(=O)(=O)c2ccc(-c3ccccc3)cc2)c1)NO`, the IC50 is recorded as 106 nM.

As for `CN(c1ccccc1)S(=O)(=O)c1cccc(/C=C/C(=O)NO)c1`, the IC50 was determined as 476 nM.

Consider `CC(=O)SCCCCCCC(=O)Nc1ccccc1`, for which the concentration for half-maximal inhibition (IC50) was 7100 nM.

As to `COc1ccc(S(=O)(=O)Nc2cccc(/C=C/C(=O)NO)c2)cc1OC`, the IC50 was 137 nM.

`COc1ccc(-c2nc3cc(Cl)cc(Cl)c3o2)cc1NC(=O)NCCCCCC(=O)NO`: the 50% inhibitory concentration (IC50) turned out to be 128 nM.

Regarding `Cc1ccc(S(=O)(=O)Nc2cccc(/C=C/C(=O)NO)c2)cc1`, the half-maximal inhibitory concentration (IC50) was 123 nM.

In the case of `O=C(CCCCCNC(=O)Nc1cccc(-c2nc3cc(F)ccc3o2)c1)NO`, the IC50 amounted to 8 nM.

For the compound `COc1ccc(-c2nc3cc(F)ccc3o2)cc1NC(=O)NCCCCCC(=O)NO`, the half-maximal inhibitory concentration (IC50) came to 15 nM.

With `O=C(/C=C/c1ccc(S(=O)(=O)Nc2ccc(-c3ccccc3)cc2)cc1)NO`, the IC50 is given as 66 nM.

In the case of `COc1ccc(-c2nc3cc(Cl)ccc3o2)cc1NC(=O)NCCCCCC(=O)NO`, the half-inhibitory concentration (IC50) was 146 nM.

On to `O=C(/C=C/c1ccc(S(=O)(=O)Nc2ccccc2)cc1)NO`, for which the concentration for half-maximal inhibition (IC50) came to 29 nM.
